According to patent US20230090683A1, “ASPACYTARABINE PHARMACEUTICAL COMPOSITIONS AND USES THEREOF” (Biosight Ltd., priority 2020, published 2023):
Converted amounts (≈) assume the structure as drawn. Where two headings read alike, the source gives them in different places.

Key:
Assay type in all cases: physicochemical
[1] = Solubility and stability of aspacytarabine hydrochloride salt in 3% aqueous solutions of stabilizers/solubilizers after 24 hours (Table 2)
Experimental: In another study, aspacytarabine hydrochloride salt was added to 3% aqueous solution of different stabilizers/solubilizers (See Table 2) at pH˜5.

[2] = Solubility of aspacytarabine in different solubilizers/stabilizers (Table 1, FIG. 1); settings: thermodynamic from solid, read-out: Conc (solubility of aspacytarabine); for solubility at 24 h: after 24 hours, room temperature
Experimental: FIG. 1 depicts solubility (mg/ml) of aspacytarabine with (i) Tween 20, 1% (non-linear polymer); (ii) PEG 400 (neat); (iii) an aqueous solution including 1% w/w poloxamer; (iv) an aqueous solution including 2% w/w poloxamer; and (v) an aqueous solution including 1% w/w poloxamer and 5% w/w PVP, where “P188” is poloxamer 188 and “PVP” is polyvinylpyrrolidone. The solubility was measured after 24 hours in room temperature at pH 4.5.
Aspacytarabine or its hydrochloride salt was stirred with various ingredients in various conditions (separate experiment for each component/condition) in order to prepare compositions thereof. […] Among components tested were organic solvents (e.g. glycerol, ethanol, polyethylene glycol (PEG, e.g. PEG 400), dimethylacetamide and propylene glycol) and polymers (e.g. Polyoxyethylated 12-hydroxystearic acid, Polyethylene glycol, sorbitan monolaurate, polyvinylpyrrolidone (PVP), triblock copolymer of polyethylene/propylene oxide (poloxamer) and cyclodextrin and/or derivatives thereof). […] See comparative results in FIG. 1 and Table 1:
Compositions 1, 2a-2d, 3 as described in Example 2 were dissolved in an aqueous solution at room temperature. Composition 4 is aspacytarabine in neat PEG 400.

[3] = Solubility and stability of aspacytarabine free base and acid salt in aqueous media
Source text: Thus, there is an unmet need for a stable and highly concentrated solutions and/or high dosage composition comprising aspacytarabine.

[4] = hydrochloride salt in 3% aqueous PVP 10 kDa + PEG 300, pH~5, room temperature
[5] = hydrochloride salt in 3% aqueous Poloxamer 188 + PEG 300, pH~5, room temperature
[6] = hydrochloride salt in 3% aqueous Poloxamer 188, pH~5, room temperature
[7] = hydrochloride salt, control without stabilizers and/or solubilizer, pH~5, room temperature

With `N[C@@H](CC(=O)Nc1ccn([C@@H]2O[C@H](CO)[C@@H](O)[C@@H]2O)c(=O)n1)C(=O)O` [aspacytarabine, (S)-2-amino-4-((1-((2R,3S,4S,5R)-3,4-dihydroxy-5-(hydroxymethyl)tetrahydrofuran-2-yl)-2-oxo-1,2-dihydropyrimidin-4-yl)amino)-4-oxobutanoic acid] the “Concentration after 24 h” value [1, 4] was 91600 ± 8400 µg/mL, the Initial appearance [1, 4] was “Clear” and the Initial concentration [1, 4] was 87.1 ± 0.0 mg/mL. The “Appearance after 24 h” value [1, 5] was “Clear”, the “Concentration after 24 h” value [1, 5] was 80600 ± 2200 µg/mL and the Initial appearance [1, 5] was “Clear”. For the same compound, the Initial concentration [1, 5] was 87.3 ± 0.4 mg/mL, the “Appearance after 24 h” value [1, 6] was “Clear” and the “Concentration after 24 h” value [1, 6] was 81800 ± 3200 µg/mL. For the same compound, the Initial appearance [1, 6] was “Clear”, the Initial concentration [1, 6] was 87.3 ± 0.2 mg/mL and the “Concentration after 24 h” value [1, 7] was 17200 ± 400 µg/mL. For the same compound, the Initial appearance [1, 7] was “Clear”, the Initial concentration [1, 7] was 86.6 ± 1.1 mg/mL and the solubility at 24 h ([2]; 1% Tween 20, aqueous with cosolvent or surfactant or cyclodextrin, solubilizer/stabilizer Tween 20 (1%, non-linear polymer), pH 4.5) was 14.3 mg/mL (≈ 40 mM). For the same compound, the solubility ([2]; Kolliphor ELP as solubilizer/stabilizer, aqueous with cosolvent or surfactant or cyclodextrin, solubilizer/stabilizer Kolliphor ELP) was 17.8 mg/mL (≈ 49.7 mM), the solubility ([2]; Solutol HS15 as solubilizer/stabilizer, aqueous with cosolvent or surfactant or cyclodextrin, solubilizer/stabilizer Solutol HS15) was 16.1 mg/mL (≈ 45.1 mM) and the solubility at 24 h ([2]; aqueous solution with 1% w/w poloxamer 188, aqueous with cosolvent or surfactant or cyclodextrin, solubilizer/stabilizer Poloxamer 1% w/w aqueous solution, pH 4.5) was 95.3 mg/mL (≈ 266 mM). The solubility at 24 h ([2]; aqueous solution with 1% w/w poloxamer 188 and 5% w/w PVP, aqueous with cosolvent or surfactant or cyclodextrin, solubilizer/stabilizer Poloxamer 1% + 5% PVP aqueous solution, pH 4.5) was 90.9 mg/mL, the solubility at 24 h ([2]; aqueous solution with 2% w/w poloxamer 188, aqueous with cosolvent or surfactant or cyclodextrin, solubilizer/stabilizer Poloxamer 2% w/w aqueous solution, pH 4.5) was 94.9 mg/mL (≈ 265 mM) and the solubility at 24 h ([2]; neat PEG 400, pH 4.5, organic solvent or mixture, solubilizer/stabilizer PEG400 (neat)) was 50.5 mg/mL (≈ 141 mM). The “solubility in aqueous media” value [3] was “low solubility”.
